Source: patent US9611267B2, “Substituted tricyclic compounds as FGFR inhibitors” (Incyte Corporation, priority 2012, dated 2017)

Assays:
Format in all cases: biochemical
[1] = molecular target: FGFR2 (Homo sapiens (Human), UniProt P21802); assay: FGFR enzymatic assay (FRET peptide phosphorylation), FGFR2; details: FGFR2 enzyme 0.01 nM, ATP 100 μM
Method: (§1) The inhibitor potency of the exemplified compounds was measured in an enzyme assay that measures peptide phosphorylation using FRET measurements to detect product formation. Inhibitors were serially diluted in DMSO and a volume of 0.5 μL was transferred to the wells of a 384-well plate. For FGFR3, a 10 μL volume of FGFR3 enzyme (Millipore) diluted in assay buffer (50 mM HEPES, 10 mM MgCl2, 1 mM EGTA, 0.01% Tween-20, 5 mM DTT, pH 7.5) was added to the plate and pre-incubated for 5-10 minutes. Appropriate controls (enzyme blank and enzyme with no inhibitor) were included on the plate. […] The plate was incubated at 25° C. for 1 hr. […] The plate was allowed to equilibrate for ˜1 hr before scanning the wells on a PheraStar plate reader (BMG Labtech).
(§2) The enzymes were purchased from Millipore or Invitrogen.
(§3) GraphPad prism3 was used to analyze the data. The IC50 values were derived by fitting the data to the equation for a sigmoidal dose-response with a variable slope. Y=Bottom+(Top−Bottom)/(1+10^((LogIC50−X)*HillSlope)) where X is the logarithm of concentration and Y is the response.

[2] = molecular target: FGFR1 (Homo sapiens (Human), UniProt P11362); assay: FGFR enzymatic assay (FRET peptide phosphorylation), FGFR1; details: FGFR1 enzyme 0.02 nM, ATP 210 μM
Chain of FGFR1 (P11362 22-822): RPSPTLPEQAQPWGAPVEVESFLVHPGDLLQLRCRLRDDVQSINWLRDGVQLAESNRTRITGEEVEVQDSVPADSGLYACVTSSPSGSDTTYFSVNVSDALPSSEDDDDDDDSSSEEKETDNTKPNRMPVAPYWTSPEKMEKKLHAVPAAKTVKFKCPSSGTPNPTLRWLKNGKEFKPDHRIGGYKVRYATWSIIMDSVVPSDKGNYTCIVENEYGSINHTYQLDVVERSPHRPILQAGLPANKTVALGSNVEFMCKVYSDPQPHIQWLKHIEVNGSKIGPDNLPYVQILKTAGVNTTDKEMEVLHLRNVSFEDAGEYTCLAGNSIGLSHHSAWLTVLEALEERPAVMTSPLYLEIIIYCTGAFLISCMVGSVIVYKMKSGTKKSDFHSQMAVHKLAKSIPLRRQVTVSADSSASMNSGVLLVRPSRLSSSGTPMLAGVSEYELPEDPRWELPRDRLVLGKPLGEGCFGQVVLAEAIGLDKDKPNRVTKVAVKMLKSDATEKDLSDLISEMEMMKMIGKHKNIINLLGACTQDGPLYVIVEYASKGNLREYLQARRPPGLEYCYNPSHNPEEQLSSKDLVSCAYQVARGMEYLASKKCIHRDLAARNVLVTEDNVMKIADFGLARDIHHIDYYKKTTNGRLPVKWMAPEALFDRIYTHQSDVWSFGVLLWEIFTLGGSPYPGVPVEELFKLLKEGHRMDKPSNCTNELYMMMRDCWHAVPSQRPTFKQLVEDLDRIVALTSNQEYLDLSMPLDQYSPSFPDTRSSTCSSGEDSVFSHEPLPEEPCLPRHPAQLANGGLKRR
Method: as §1, §2, §3

[3] = molecular target: FGFR3 (Homo sapiens (Human), UniProt P22607); assay: FGFR enzymatic assay (FRET peptide phosphorylation), FGFR3; details: FGFR3 enzyme (Millipore), ATP 140 μM
Chain of FGFR3 (P22607 23-806): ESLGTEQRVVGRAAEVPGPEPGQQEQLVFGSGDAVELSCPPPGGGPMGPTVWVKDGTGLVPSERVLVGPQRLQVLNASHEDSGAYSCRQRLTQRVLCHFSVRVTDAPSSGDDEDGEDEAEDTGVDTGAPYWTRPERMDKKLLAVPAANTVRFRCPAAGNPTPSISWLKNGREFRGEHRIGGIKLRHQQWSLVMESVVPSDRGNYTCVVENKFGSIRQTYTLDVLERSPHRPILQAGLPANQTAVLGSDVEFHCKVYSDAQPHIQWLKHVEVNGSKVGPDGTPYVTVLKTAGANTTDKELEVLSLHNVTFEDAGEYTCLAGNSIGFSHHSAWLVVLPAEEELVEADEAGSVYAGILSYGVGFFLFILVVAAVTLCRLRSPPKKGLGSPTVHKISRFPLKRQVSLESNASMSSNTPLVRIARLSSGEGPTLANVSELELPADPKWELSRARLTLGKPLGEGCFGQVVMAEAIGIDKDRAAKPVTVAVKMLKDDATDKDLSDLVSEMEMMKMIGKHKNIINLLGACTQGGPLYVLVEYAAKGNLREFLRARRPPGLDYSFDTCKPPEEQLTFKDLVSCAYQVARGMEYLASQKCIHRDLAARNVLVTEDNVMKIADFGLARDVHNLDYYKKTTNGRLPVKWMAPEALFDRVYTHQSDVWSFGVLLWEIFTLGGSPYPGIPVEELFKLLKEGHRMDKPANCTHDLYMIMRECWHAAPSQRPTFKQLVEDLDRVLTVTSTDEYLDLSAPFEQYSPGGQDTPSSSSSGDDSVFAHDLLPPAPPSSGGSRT
Method: as §1, §3

Measured: IC50

Chain of FGFR2 (P21802 22-821): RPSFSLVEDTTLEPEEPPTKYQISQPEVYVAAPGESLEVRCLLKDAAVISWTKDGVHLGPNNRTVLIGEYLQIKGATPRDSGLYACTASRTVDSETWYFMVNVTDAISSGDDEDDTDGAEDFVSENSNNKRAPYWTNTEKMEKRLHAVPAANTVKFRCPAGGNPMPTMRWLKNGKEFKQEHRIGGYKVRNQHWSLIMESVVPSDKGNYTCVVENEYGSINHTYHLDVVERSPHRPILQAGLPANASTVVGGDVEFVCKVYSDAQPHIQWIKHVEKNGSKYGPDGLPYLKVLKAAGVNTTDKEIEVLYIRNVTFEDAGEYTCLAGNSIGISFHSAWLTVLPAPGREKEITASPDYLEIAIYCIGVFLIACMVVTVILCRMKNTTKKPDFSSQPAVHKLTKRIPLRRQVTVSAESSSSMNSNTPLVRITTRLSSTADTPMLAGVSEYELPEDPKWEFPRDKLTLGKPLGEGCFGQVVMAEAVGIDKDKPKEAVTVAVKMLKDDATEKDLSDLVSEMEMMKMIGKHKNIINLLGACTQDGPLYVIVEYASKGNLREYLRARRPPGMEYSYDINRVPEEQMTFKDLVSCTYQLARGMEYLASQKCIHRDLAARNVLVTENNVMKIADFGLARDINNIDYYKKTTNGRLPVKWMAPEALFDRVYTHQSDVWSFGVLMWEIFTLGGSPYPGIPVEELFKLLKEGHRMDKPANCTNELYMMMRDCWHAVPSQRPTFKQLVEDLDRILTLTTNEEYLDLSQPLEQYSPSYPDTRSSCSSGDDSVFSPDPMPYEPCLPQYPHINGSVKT

CNC(=O)c1cc2c3c(cnc2[nH]1)CN(c1cc(OC)cc(OC)c1Cl)C(=O)N3C [Example 23, 3-(2-Chloro-3,5-dimethoxyphenyl)-N,1-dimethyl-2-oxo-2,3,4,7-tetrahydro-1H-pyrrolo[3′,2′:5,6]pyrido[4,3-d]pyrimidine-8-carboxamide]
< 100 nM: all assays above

COc1cc(OC)c(Cl)c(N2Cc3cnc4[nH]c(C(=O)N(C)C)cc4c3N(C)C2=O)c1 [Example 24, 3-(2-Chloro-3,5-dimethoxyphenyl)-N,N,1-trimethyl-2-oxo-2,3,4,7-tetrahydro-1H-pyrrolo[3′,2′:5,6]pyrido[4,3-d]pyrimidine-8-carboxamide]
< 100 nM: all assays above

COc1cc(OC)c(Cl)c(N2Cc3cnc4[nH]c(C(=O)N5CC(O)C5)cc4c3N(C)C2=O)c1 [Example 25, 3-(2-Chloro-3,5-dimethoxyphenyl)-8-[(3-hydroxyazetidin-1-yl)carbonyl]-1-methyl-1,3,4,7-tetrahydro-2H-pyrrolo[3′,2′:5,6]pyrido[4,3-d]pyrimidin-2-one]
< 100 nM: all assays above

COc1cc(OC)c(Cl)c(N2Cc3cnc4[nH]c(C(=O)N5CCN(C)CC5)cc4c3N(C)C2=O)c1 [Example 26, 3-(2-Chloro-3,5-dimethoxyphenyl)-1-methyl-8-[(4-methylpiperazin-1-yl)carbonyl]-1,3,4,7-tetrahydro-2H-pyrrolo[3′,2′:5,6]pyrido[4,3-d]pyrimidin-2-one]
< 100 nM: all assays above

COc1cc(OC)c(F)c(N2Cc3cnc4[nH]c(C(=O)NC5CC5)cc4c3N(C)C2=O)c1 [Example 27, N-Cyclopropyl-3-(2-fluoro-3,5-dimethoxyphenyl)-1-methyl-2-oxo-2,3,4,7-tetrahydro-1H-pyrrolo[3′,2′:5,6]pyrido[4,3-d]pyrimidine-8-carboxamide]
< 100 nM: all assays above

COc1cc(OC)c(F)c(N2Cc3cnc4[nH]c(C(=O)N5CC(O)C5)cc4c3N(C)C2=O)c1 [Example 28, 3-(2-Fluoro-3,5-dimethoxyphenyl)-8-[(3-hydroxyazetidin-1-yl)carbonyl]-1-methyl-1,3,4,7-tetrahydro-2H-pyrrolo[3′,2′:5,6]pyrido[4,3-d]pyrimidin-2-one]
< 100 nM: all assays above

COc1cc(OC)c(F)c(N2Cc3cnc4[nH]c(C(=O)N5CCC(C#N)C5)cc4c3N(C)C2=O)c1 (stereo not drawn) [Example 29, 1-{[3-(2-Fluoro-3,5-dimethoxyphenyl)-1-methyl-2-oxo-2,3,4,7-tetrahydro-1H-pyrrolo[3′,2′:5,6]pyrido[4,3-d]pyrimidin-8-yl]carbonyl}pyrrolidine-3-carbonitrile]
< 100 nM: all assays above

COc1cc(OC)c(F)c(N2Cc3cnc4[nH]c(C(=O)N5CCN(C)CC5)cc4c3N(C)C2=O)c1 [Example 30, 3-(2-Fluoro-3,5-dimethoxyphenyl)-1-methyl-8-[(4-methylpiperazin-1-yl)carbonyl]-1,3,4,7-tetrahydro-2H-pyrrolo[3′,2′:5,6]pyrido[4,3-d]pyrimidin-2-one]
< 100 nM: all assays above

COc1cc(OC)c(F)c(N2Cc3cnc4[nH]c(C(=O)N5CCCC(O)C5)cc4c3N(C)C2=O)c1 (stereo not drawn) [Example 31, 3-(2-Fluoro-3,5-dimethoxyphenyl)-8-[(3-hydroxypiperidin-1-yl)carbonyl]-1-methyl-1,3,4,7-tetrahydro-2H-pyrrolo[3′,2′:5,6]pyrido[4,3-d]pyrimidin-2-one]
< 100 nM: all assays above

COc1cc(OC)c(F)c(N2Cc3cnc4[nH]c(C(=O)N(C)C)cc4c3N(C)C2=O)c1 [Example 34, 3-(2-Fluoro-3,5-dimethoxyphenyl)-N,N,1-trimethyl-2-oxo-2,3,4,7-tetrahydro-1H-pyrrolo[3′,2′:5,6]pyrido[4,3-d]pyrimidine-8-carboxamide]
< 100 nM: all assays above

COc1cc(OC)c(F)c(N2Cc3cnc4[nH]c(C(=O)N(C)C)cc4c3N(C)C2=O)c1F [Example 35, 3-(2,6-Difluoro-3,5-dimethoxyphenyl)-N,N,1-trimethyl-2-oxo-2,3,4,7-tetrahydro-1H-pyrrolo[3′,2′:5,6]pyrido[4,3-d]pyrimidine-8-carboxamide]
< 100 nM: all assays above

COc1cc(OC)c(F)c(N2Cc3cnc4c(c3N(C)C2=O)CC(=O)N4)c1F [Example 37, 3-(2,6-Difluoro-3,5-dimethoxyphenyl)-1-methyl-3,4,7,9-tetrahydro-1H-pyrrolo[3′,2′:5,6]pyrido[4,3-d]pyrimidine-2,8-dione]
< 100 nM: all assays above

COc1cc(OC)c(F)c(N2Cc3cnc4ccsc4c3N(C)C2=O)c1F [Example 38, 3-(2,6-Difluoro-3,5-dimethoxyphenyl)-1-methyl-3,4-dihydrothieno[2′,3′:5,6]pyrido[4,3-d]pyrimidin-2(1H)-one]
< 100 nM: all assays above

COc1cc(OC)c(F)c(N2Cc3cnc4[nH]c(C5CCOCC5)cc4c3N(C)C2=O)c1F [Example 39, 3-(2,6-Difluoro-3,5-dimethoxyphenyl)-1-methyl-8-(tetrahydro-2H-pyran-4-yl)-1,3,4,7-tetrahydro-2H-pyrrolo[3′,2′:5,6]pyrido[4,3-d]pyrimidin-2-one]
< 100 nM: all assays above

COc1cc(OC)c(F)c(N2Cc3cnc4[nH]c(C(=O)N5CCN(C)CC5)cc4c3N(C)C2=O)c1F [Example 40, 3-(2,6-Difluoro-3,5-dimethoxyphenyl)-1-methyl-8-[(4-methylpiperazin-1-yl)carbonyl]-1,3,4,7-tetrahydro-2H-pyrrolo[3′,2′:5,6]pyrido[4,3-d]pyrimidin-2-one]
< 100 nM: all assays above

COc1cc(OC)c(F)c(N2Cc3cnc4[nH]c(C(=O)N5CCOCC5)cc4c3N(C)C2=O)c1F [Example 41, 3-(2,6-Difluoro-3,5-dimethoxyphenyl)-1-methyl-8-(morpholin-4-ylcarbonyl)-1,3,4,7-tetrahydro-2H-pyrrolo[3′,2′:5,6]pyrido[4,3-d]pyrimidin-2-one]
< 100 nM: all assays above

COc1cc(OC)c(F)c(N2Cc3cnc4[nH]c(C(=O)N5CCC(F)(F)CC5)cc4c3N(C)C2=O)c1F [Example 42, 3-(2,6-Difluoro-3,5-dimethoxyphenyl)-8-[(4,4-difluoropiperidin-1-yl)carbonyl]-1-methyl-1,3,4,7-tetrahydro-2H-pyrrolo[3′,2′:5,6]pyrido[4,3-d]pyrimidin-2-one]
< 100 nM: all assays above

COc1cc(OC)c(F)c(N2Cc3cnc4[nH]cc(-c5cnn(C)c5)c4c3N(C)C2=O)c1F [Example 43, 3-(2,6-Difluoro-3,5-dimethoxyphenyl)-1-methyl-9-(1-methyl-1H-pyrazol-4-yl)-1,3,4,7-tetrahydro-2H-pyrrolo[3′,2′:5,6]pyrido[4,3-d]pyrimidin-2-one]
< 100 nM: all assays above

COc1cc(OC)c(F)c(N2Cc3cnc4[nH]ccc4c3N(CCO)C2=O)c1F [Example 44, 3-(2,6-Difluoro-3,5-dimethoxyphenyl)-1-(2-hydroxyethyl)-1,3,4,7-tetrahydro-2H-pyrrolo[3′,2′:5,6]pyrido[4,3-d]pyrimidin-2-one]
< 100 nM: all assays above

COc1cc(OC)c(F)c(N2Cc3cnc4[nH]ccc4c3N(C3CC3)C2=O)c1F [Example 45, 1-Cyclopropyl-3-(2,6-difluoro-3,5-dimethoxyphenyl)-1,3,4,7-tetrahydro-2H-pyrrolo[3′,2′:5,6]pyrido[4,3-d]pyrimidin-2-one]
< 100 nM: all assays above

COc1cc(OC)c(F)c(N2Cc3cnc4[nH]ccc4c3N(C3CCOCC3)C2=O)c1F [Example 46, 3-(2,6-Difluoro-3,5-dimethoxyphenyl)-1-(tetrahydro-2H-pyran-4-yl)-1,3,4,7-tetrahydro-2H-pyrrolo[3′,2′:5,6]pyrido[4,3-d]pyrimidin-2-one]
< 100 nM: all assays above
